Measurements as given in US7037717B1, “Cell line and screening method with the use of the same” (Chugai Seiyaku Kabushiki Kaisha, priority 1997, dated 2006).

Tests used:
CL-1 cells [1] = assay: Calcification of CL-1 cells, Ca deposition per dish (O-CPC method); format: cell-based, mouse; details: 10^−9, 10^−8 or 10^−7 M; vs solvent control, on and after 2 weeks post confluent
Protocol: CL-1 cells were cultured on a 60-mm dish (CORNING) at a cell density of 2000 cells/cm^2. When cells reached to confluent, 1,25-dihydroxyvitamin D3 was added at a final concentration of 10^−9, 10^−8 or 10^−7 M, then samples were weekly collected for 4 weeks post confluent to determine the Ca content with time. Namely, cell layers were washed with Ca-Mg-free PBS three times, then harvested in a crucible with a cell scraper (Nunc), then dried in an incubator at 60° C., then burned overnight in an oven at 800° C., and the remaining ash was dissolved in 500 μl of 6N hydrochloric acid (Wako Pure Chemical Industries). The Ca content in this solution was determined by the O-CPC method (Ca test Wako, available from Wako Pure Chemical Industries) to calculate the Ca deposition per dish.

CL-1 cells [2] = assay: Differentiation of CL-1 cells into adipocytes, Oil red O-positive lipid droplets; format: cell-based, mouse
Protocol: Influences of 1,25-dihydroxyvitamin D3 known to inhibit conversion of a adipocyte precursor cell line 3T3-L1 into adipocytes (Comp. Biochem. Physiol. 96A, (1990)) on differentiation of CL-1 cells into adipocytes were examined. CL-1 cells were cultured on a 4-well chamber slide (Nunc) at a cell density of 2500 cells/cm^2 to confluent, after which 1,25-dihydroxyvitamin D3 was added at a final concentration of […] for each medium change.

CL-1 cells [3] = assay: Alizarin red S staining of CL-1 nodules; format: cell-based, mouse; details: 10 mM in medium, cultured one month
Protocol: CL-1 cells were similarly cultured in the medium supplemented with 10 mM β-glycerophosphate. Then, they were fixed in 4% paraformaldehyde (pH 7.4), washed with distilled water, then stained with a 1% Alizarin red S (Merck) solution for 5 minutes, washed with water and then observed with naked eyes and with an optical microscope.

CL-1 cells [4] = assay: Stainability of CL-1 cells with Alcian blue (pH 1.0), cartilage-inducing ability; format: cell-based, mouse; details: for Alcian blue (pH 1.0)-positive nodules: morphologically, compared with the medium alone
Protocol: In order to examine whether or not CL-1 cells can be used as an in vitro screening system for cartilage-inducing materials, effects of hTGF-β, known to have cartilage-inducing ability (J. Biol. Chem. 261, 5693 (1986)) on the stainability of CL-1 cells with Alcian blue (pH 1.0) were examined. Namely, CL-1 cells were cultured on a 24-well plate (CORNING) at a cell density of 2500 cells/cm^2 to confluent, at which human transforming growth factor-β1 (hTGF-β1; AUSTRAL Biologicals) was added at a concentration of 0.1, 1.0 or 10 ng/ml, and cultivation took place for 3 weeks after the start of the addition with the medium being changed every 2 or 3 days. The addition of hTGF-β1 was performed for each medium change. After completion of cultivation, cells were fixed in 4% paraformaldehyde (Wako Pure Chemical Industries) and washed with water, then treated with 0.1 N hydrochloric acid (Wako Pure Chemical Industries) for 3 minutes, and then stained overnight with an Alcian blue (pH 1.0) solution (concentration: 1%). After completion of staining, samples were washed with distilled water three times and air-dried. The dried samples were immersed in 300 μl of a 6 M guanidine hydrochloride solution (Wako Pure Chemical Industries) for 3 hours and stirred, after which the absorbance of the guanidine hydrochloride solution at 620 nm was determined.

CL-1 cells [5] = assay: Uptake of 35S-labeled sulfuric acid into CL-1 cell layers; format: cell-based, mouse
Protocol: CL-1 cells were plated on a polystyrene 96-well plate (Wallac) at a cell density of 2000 cells/well, and incubated in (α-MEM (GIBCO) containing 10% inactivated serum (Intergen), 100 U/ml penicillin and 100 μg/ml streptomycin in an incubator at 37° C., 5% CO2, with the medium being changed with a fresh medium 3 times a week to reach confluency. After confluency was confirmed with a microscope, the medium was changed with a fresh medium containing human TGF-β1 (AUSTRAL BIOLOGICALS) at a concentration of 0.1, 1.0 or 10 ng/ml and incubation was continued. After 24 hours, ^35S-labeled sulfuric acid (Amersham) was added at 0.5 μCi/well and incubation was continued for further 24 hours. Then, the medium was changed with 200 μl of 0.1 M phosphate buffer (pH 7.4) containing 5% paraformaldehyde (Wako Pure Chemical Industries) and 0.4% cetylpyridinium chloride (Wako Pure Chemical Industries) for fixation at room temperature for 2 hours. After CL-1 cell layers were washed once with the same buffer, 100 μl of a liquid scintillator (Optiphase supermix, available from Wallac) was added to each well followed by stirring, so that the radioactivity of ^35S-labeled sulfuric acid incorporated into CL-1 cell layers was determined by a liquid scintillation counter (Microbeta 1450, available from Wallac).

ATDC-5 cells = assay: Stainability of ATDC-5 cells with Alcian blue (pH 1.0); format: cell-based; details: 10 μg/ml insulin and 0.1 to 10 ng/ml hTGF-β1, 7 days post confluent
Protocol: ATDC-5 cells known to differentiate into chondrocytes in the presence of insulin (Cell Diff. Dev. 30, 109 (1990); available from the Cell Bank of The Institute of Physical and Chemical Research) were also cultured by the same procedure in the presence of 10 μg/ml of insulin and 0.1 to 10 ng/ml of hTGF-β1 for 7 days post confluent to examine the stainability with Alcian blue (pH 1.0).

CL-1 cells [6] = assay: Cartilage destruction: Alcian blue stainability of hTGF-β1-enhanced CL-1 cells; format: cell-based, mouse
Protocol: This example relates to an examination about whether or not cartilage-like nodules formed by culturing CL-1 cells in the presence of hTGF-β1 are destroyed by inflammatory cytokines IL-1 or TNF-α. CL-1 cells were cultured on a 24-well plate (CORNING) at a cell density of 2500 cells/cm^2 to confluent, after which hTGF-β1 was daily added to the medium for 5 days at a final concentration of 1.0 ng/ml. Then, mouse interleukin 1α (mIL-1α; R & D systems) and mouse tumor necrosis factor-a (mTNF-α; R & D systems) were daily added to the medium for 5 days at a final concentration of 0.1, 1.0 or 10 ng/ml, and the cells were cultured. Then, the stainability of CL-1 cells with Alcian blue (pH 1.0) was determined as described hereinbefore. As a result, the stainability with Alcian blue (pH 1.0) decreased in the presence of mIL-1α at 0.1 ng/ml or more (see FIG. 15) and mTNF-α at 1.0 ng/ml or more (see FIG. 16).

C=C1/C(=C\C=C2/CCC[C@]3(C)[C@@H]([C@H](C)CCCC(C)(C)O)CC[C@@H]23)C[C@@H](O)C[C@@H]1O [1,25-dihydroxyvitamin D3]
amount of Ca deposition (CL-1 cells [1]): significantly inhibited | intracellular accumulation of Oil red O-positive lipid droplets (CL-1 cells [2]; 10^−3 M at each medium change, 3 weeks): remarkably inhibits

O=P(O)(O)OC(CO)CO [β-glycerophosphate]
Alizarin red S staining of nodules (CL-1 cells [3]): turned positive

hIGF-I: human insulin-like growth factor-I (CHEMICON INTERNATIONAL)
stainability with Alcian blue (pH 1.0) (CL-1 cells [4]; 100 ng/ml, similar test, 3 weeks): increase | Alcian blue (pH 1.0)-positive nodules (CL-1 cells [4]; 3 weeks post confluent): clearly increased | accumulation of Oil red O-positive lipid droplets in CL-1 cells (CL-1 cells [2]; compared with the medium alone): promoted

hTGF-β1: human transforming growth factor-β1 (AUSTRAL Biologicals), known to have cartilage-inducing ability
stainability with Alcian blue (pH 1.0) (CL-1 cells [4]; 0.1, 1.0 or 10 ng/ml added at each medium change, 3 weeks post confluent, absorbance at 620 nm): increased dose-dependently | Alcian blue (pH 1.0)-positive nodules (CL-1 cells [4]; 3 weeks post confluent): clearly increased | increase of the uptake of 35S-labeled sulfuric acid (CL-1 cells [5]; 0.1, 1.0 or 10 ng/ml, FIG. 21): about double | concentration with statistically significant increase of the uptake of 35S-labeled sulfuric acid (CL-1 cells [5]; vs control containing the medium alone, 48 h after addition): ≥ 0.1 ng/mL | stainability of ATDC-5 cells with Alcian blue (pH 1.0) (ATDC-5 cells): dose-dependently decreased

B1: mIL-1α: mouse interleukin 1α (R & D systems), inflammatory cytokine (protein, UniProt P01582 115-270, looked up)
Interleukin-1 alpha: SAPYTYQSDLRYKLMKLVRQKFVMNDSLNQTIYQDVDKHYLSTTWLNDLQQEVKFDMYAYSSGGDDSKYPVTLKISDSQLFVSAQGEDQPVLLKELPETPKLITGSETDLIFFWKSINSKNYFTSAAYPELFIATKEQSRVHLARGLPSMTDFQIS
destruction of cartilage-like tissues formed by CL-1 cells in the presence of human TGF-β1 (CL-1 cells [6]): destroyed | concentration at which stainability with Alcian blue (pH 1.0) decreased (CL-1 cells [6]; daily added for 5 days after 5 days of hTGF-β1 1.0 ng/ml): ≥ 0.1 ng/ml
